Reference: US10201507B2, “Modulators of intracellular chloride concentration for treating fragile X syndrome” (NEUROCHLORE, priority 2012, dated 2019)

Tests used:
[1] = system: hippocampal slices; assay: Extracellular field potentials / spike frequency in hippocampal slices at P15 on isoguvacine; type: cell-based, mouse
Description: Recording were made in the hippocampal slices using tungsten wire electrodes (diameter: 50 μm, California Fine Wire, Grover Beach, Calif.) and a low-noise multichannel DAM-8A amplifiers (WPI, GB; […]; gain: ×1000). The signals were digitized using an analogue-to-digital converter (Digidata 1440A, Axon Instruments, USA). pCLAMP 10.1, Clampfit 10.1 (Axon Instruments, USA), MiniAnalysis 6.03 (Synaptosoft, Decatur, Calif.) and Origin 7.5 (Microcal Software, USA) programs were used for the acquisition and analysis of the synaptic activities. Sampling interval per signal was 100 microseconds (10 kHz).
To test whether depolarizing actions of GABA were associated with neuronal excitation, the effect of the GABAA receptor agonist isoguvacine was tested. […] To test whether maternal treatment with bumetanide before delivery switches the action of GABA from excitatory to inhibitory in offsprings at P15, pregnant females were treated orally 1 day before delivery with bumetanide (2-2.5 mg/kg in drinking water) and juvenile offspring neurons recorded at P15. […] Therefore, excitatory actions of GABA during delivery produce long term deleterious effects on electrophysiological parameters of FXS juvenile neurons. In FXS mice, GABAergic inputs are excitatory and contribute to hyperexcitability of the network. Bumetanide decreases [Cl^−]i and consequently reduces contribution of excitatory GABAergic inputs in the overall network activity.

[2] = system: child with Fragile X syndrome; assay: Clinical case study, efficacy scales (ABC, GRAM, CGI); type: in vivo, human; conditions: after 90 days, 0.5 mg twice a day
Description: This example is a case reports presenting the treatment by bumetanide of a child with Fragile X syndrome. Starting from the 5 Jan. 2011, the child received bumetanide twice a day (0.5 mg morning and 0.5 mg evening) during three months. Several biological tests were made at baseline (D0) and then after 7 days (D7), one month (M1), two months (M2) and three months (M3) of treatment. They checked orthostatic hypotension, allergy, cramps, asthenia, diarrhea, myalgia, arthralgia, vertigo and nausea. Blood tests included γ-glutamyltransferase, transaminases, alkaline phosphatases, glycemia, uric acid and creatine, in addition to blood Na^+ and K^+. Efficacy of the treatment was measured at baseline (D0) and after three months of treatment (M3) using the GRAM scale ([…] Regulation Adaptation Modulation) for analyzing the dysregulation of the activity in a child; the ABC scale (Aberrant Behavior Checklist) for assessing problem behaviors of children and adults with mental retardation; and the CGI scale (Clinical Global Impression) for assessing the clinical amelioration in a patient following a therapeutic treatment.

[3] = system: FXS mice; assay: Isolation-induced ultrasonic vocalizations (USVs) at P8 after maternal pretreatment; type: in vivo, mouse
Description: To induce ultrasonic vocalizations, mouse pups were isolated individually from their mother on postnatal day 8, and were placed into an isolation box (23×28×18 cm) located inside a sound attenuating isolation cubicle (54×57×41 cm; Coulbourn Instruments, Allentown, Pa., USA), and evaluated for ultrasonic vocalizations during a three minute test. An ultrasound microphone (Avisoft UltraSoundGate Condenser microphone capsule […] Bioacoustics, Berlin, Germany), placed in the roof of the box, was sensitive to frequencies of 10 to 250 kHz. Vocalizations were recorded using the Avisoft Recorder software (version 4.2) with a sampling rate of 250 kHz in 16 bit format. For acoustical analysis, recordings were transferred to SASLab Pro (version 5.2; Avisoft Bioacoustics) and a fast Fourier transformation was conducted (512 FFT-length, 100% frame, Hamming window and 75% time window overlap). The accuracy of call detection was verified manually by an educated user. A Pearson correlation coefficient was computed to assess the relationship between Automatic and Manual analysis. There was 0.99 correlations between the two variables. A t postnatal day 8, waveform patterns of calls were examined in 45 sonograms from 4 groups of mice (WT, FXS, WT pretreated, FXS pretreated). Each call was identified as one of 10 distinct categories, and only the sonograms where mice emitted at least 50 calls were used for this evaluation. To test whether depolarizing actions of GABA were associated with neuronal excitation, the effect of the GABAA receptor agonist isoguvacine was tested. […] To test whether maternal treatment with bumetanide before delivery switches the action of GABA from excitatory to inhibitory in offsprings at P15, pregnant females were treated orally 1 day before delivery with bumetanide (2-2.5 mg/kg in drinking water) and juvenile offspring neurons recorded at P15. […] Therefore, excitatory actions of GABA during delivery produce long term deleterious effects on electrophysiological parameters of FXS juvenile neurons. In FXS mice, GABAergic inputs are excitatory and contribute to hyperexcitability of the network. Bumetanide decreases [Cl^-]i and consequently reduces contribution of excitatory GABAergic inputs in the overall network activity. Isolation and Ultrasonic vocalizations were induced in mice to determine behavioral effect of Bumetanide in a model of FXS. An increased probability of emitting downward and chevron calls in FXS pups than age matched WT (P8). This was rescued by maternal bumetanide pretreatment (FIG. 4, table 3). Therefore, elevated [Cl^-]i levels during delivery are involved in the pathogenesis of Fragile X syndrome.

[4] = system: child with Fragile X syndrome; assay: Clinical case study, side effects, blood tests, blood ions and weight; type: in vivo, human
Description: This example is a case reports presenting the treatment by bumetanide of a child with Fragile X syndrome.
Starting from the 5 Jan. 2011, the child received bumetanide twice a day (0.5 mg morning and 0.5 mg evening) during three months. Several biological tests were made at baseline (D0) and then after 7 days (D7), one month (M1), two months (M2) and three months (M3) of treatment. They checked orthostatic hypotension, allergy, cramps, asthenia, diarrhea, myalgia, arthralgia, vertigo and nausea. Blood tests included γ-glutamyltransferase, transaminases, alkaline phosphatases, glycemia, uric acid and creatine, in addition to blood Na^+ and K^+.

CCCCNc1cc(C(=O)O)cc(S(N)(=O)=O)c1Oc1ccccc1 [bumetanide]
normalized spike frequency ([1]; FXS mice pretreated with bumetanide, P15, on isoguvacine (10 μM)): 80.8±8.2%
Effect on excitatory actions of isoguvacine (in words) ([1]; FXS offspring P15, maternal pretreatment): suppressed the excitatory actions
CGI result [2]: 2
ABC results (Aberrant Behavior Checklist) ([2]; baseline 41): 27
GRAM results ([2]; baseline 56): 31
Chevron calls, isolation-induced USVs ([3]; P8 FXS mice): 0.6 ± 0.1 (n = 13)
Downward calls, isolation-induced USVs ([3]; P8 FXS mice): 10.2 ± 1.4 (n = 13)
Increased probability of downward and chevron calls (in words) ([3]; P8 FXS pups): rescued
Chevron calls, isolation-induced USVs ([3]; P8 WT mice): 0.5 ± 0.3 (n = 9)
Downward calls, isolation-induced USVs ([3]; P8 WT mice): 13.5 ± 2.8 (n = 9)
Weight ([4]; 1 month (M1) of treatment): 25.1 kg
blood K^+ ([4]; 1 month (M1) of treatment): 4.3 mmol/L
blood Na^+ ([4]; 1 month (M1) of treatment): 139 mmol/L
Weight ([4]; 2 months (M2) of treatment): 25.4 kg
blood K^+ ([4]; 2 months (M2) of treatment): 3.5 mmol/L
blood Na^+ ([4]; 2 months (M2) of treatment): 140 mmol/L
Weight ([4]; 3 months (M3) of treatment): 25.7 kg
blood K^+ ([4]; 3 months (M3) of treatment): 3.6 mmol/L
blood Na^+ ([4]; 3 months (M3) of treatment): 139 mmol/L
Natremia (in words) ([4]; 3 months of treatment): unaltered
body weight (in words) ([4]; 3 months of treatment): not altered
blood K^+ (in words) ([4]; 3 months of treatment, inferior limit 3.5 mmol/1): reduced to a value close to the inferior limit
Weight ([4]; 7 days (D7) of treatment): 25.2 kg
blood K^+ ([4]; 7 days (D7) of treatment): 3.6 mmol/L
blood Na^+ ([4]; 7 days (D7) of treatment): 143 mmol/L
side effect in clinical examination ([4]; orthostatic hypotension, allergy, cramps, asthenia, diarrhea, myalgia, arthralgia, vertigo, nausea, 3 months): no side effect
Conventional blood tests ([4]; γ-glutamyltransferase, transaminases, alkaline phosphatases, glycemia, uric acid, creatine, 3 months): unaffected
